Results as given in ChEMBL document CHEMBL5518239, “Recent Advances on Small-Molecule Inhibitors of Lipocalin-like Proteins” (J Med Chem, 2024).
pIC50, pKd, pKi: −log10 of the molar value.

Key:
[1] = molecular target: Retinol-binding protein 4 (Homo sapiens, UniProt P02753)
[2] = molecular target: T1, Fatty acid-binding protein, adipocyte (Homo sapiens, UniProt P15090)
[3] = molecular target: T2, Retinol-binding protein 1 (Homo sapiens, UniProt P09455)
T2 sequence (P09455 whole entry): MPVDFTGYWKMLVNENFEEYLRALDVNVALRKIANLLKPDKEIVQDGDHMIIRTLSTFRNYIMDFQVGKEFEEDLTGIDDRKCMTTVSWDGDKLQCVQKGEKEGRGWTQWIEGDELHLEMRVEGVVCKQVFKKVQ

[4] = molecular target: T3, Fatty acid-binding protein, heart (Homo sapiens, UniProt P05413)
[5] = molecular target: T4, Fatty acid-binding protein, brain (Homo sapiens, UniProt O15540)
[6] = molecular target: T2, Retinol-binding protein 1; remark: listed apart in the source
[7] = molecular target: T4, Fatty acid-binding protein, brain; remark: listed apart in the source
[8] = molecular target: T1, Fatty acid-binding protein, adipocyte; remark: listed apart in the source
[9] = molecular target: T3, Fatty acid-binding protein, heart; remark: listed apart in the source
in vitro = details: human, liver microsomes

**Q.** With CC1=C(/C=C/C(C)=C/C=C/C(C)=C/C(=O)NCCO)C(C)(C)CCC1 as the compound, how does the pKd [1] read?
**A.** 6.88

**Q.** With CC1=C(/C=C/C(C)=C/C=C/C(C)=C/C(=O)Nc2ccc(OCC(=O)O)cc2)C(C)(C)CCC1 as the compound, how does the pKd [1] read?
**A.** 6.88

**Q.** With O=C(O)Cc1cn(-c2ccccc2-c2nc(-c3ccc4ccccc4c3)c(-c3ccccc3)s2)nn1 as the compound, how does the pIC50 [2] read?
**A.** 5.90

**Q.** With Cc1ccc(C2(c3noc(CN(C)Cc4cccs4)n3)CCCC2)cc1 as the compound, how does the pKi [3] read?
**A.** 5.15

**Q.** With CC1=C(/C=C/C(C)=C/C=C/C(C)=C/C(=O)NCC(O)CO)C(C)(C)CCC1 (stereo not given) as the compound, how does the pKd [1] read?
**A.** 6.88

**Q.** With O=C(O)Cc1cn(-c2ccccc2-c2nc(-c3ccc(Cl)cc3)c(-c3ccccc3)s2)nn1 as the compound, how does the pIC50 [2] read?
**A.** 5.60

**Q.** With Cc1ccc(C2(c3noc(CN(C)Cc4cnn(C)c4)n3)CCCC2)cc1 as the compound, how does the pKi [3] read?
**A.** 5.15

**Q.** Which results are given for O=C(O)[C@H]1[C@@H](c2ccccc2)[C@H](C(=O)Nc2cccc3ccccc23)[C@@H]1c1ccccc1?
**A.** pKi [4]: 5.59; pKi [5]: 5.82

**Q.** With CC(c1cccs1)N(C)Cc1nc(C(c2ccccc2)c2ccccc2)no1 (stereo not given) as the compound, how does the pKi [3] read?
**A.** 5.15

**Q.** With C=C(C)C1CCCC[C@H]1c1c(O)cc(O)cc1CCCCC (stereo not given in full) as the compound, how does the pKi [6] read?
**A.** 7.17

**Q.** With CC1=C(/C=C/C(C)=C/C=C/C(C)=C/C(=O)Nc2ccc(N(C)C)cc2)C(C)(C)CCC1 as the compound, how does the pKd [1] read?
**A.** 6.88

**Q.** With O=C(O)[C@H]1[C@@H](c2ccccc2)[C@H](C(=O)Oc2ccc3ccccc3c2)[C@@H]1c1ccccc1 as the compound, how does the pKi [4] read?
**A.** 5.46

**Q.** What about the pKi [5] of the same compound?
**A.** 5.89

**Q.** With O=C(O)[C@H]1[C@H](c2ccccc2)[C@H](C(=O)Oc2cccc(C3=CCOCC3)c2)[C@H]1c1ccccc1 as the compound, how does the pKi [7] read?
**A.** 6.08

**Q.** With C=C1CC[C@@H]2[C@](C)(CO)[C@H](O)CC[C@@]2(C)[C@@H]1C/C=C1/C(=O)OC[C@H]1O [ANDROGRAPHOLIDE] as the compound, how does the pIC50 [8] read?
**A.** 6.05

**Q.** With COc1ccccc1[C@H]1[C@H](C(=O)O)[C@H](c2ccccc2OC)[C@H]1C(=O)Oc1ccccc1-c1ccccc1 as the compound, how does the pKi [4] read?
**A.** 5.80

**Q.** With O=C(O)Cc1cn(-c2ccccc2-c2nc(-c3ccccc3)c(-c3ccccc3)s2)nn1 as the compound, how does the pIC50 [2] read?
**A.** 5.40

**Q.** With O=C(Nc1cccc2ccccc12)[C@H]1[C@H](c2ccccc2)[C@H](C(=O)Nc2cccc3ccccc23)[C@H]1c1ccccc1 as the compound, how does the pKi [4] read?
**A.** < 5.00

**Q.** And the pKi [5]?
**A.** 5.48

**Q.** With O=C(O)CCCOc1ccc(F)cc1-c1cc(-c2ccccc2C(F)(F)F)n(-c2ccccc2)n1 as the compound, how does the pKi [9] read?
**A.** 7.62

**Q.** With O=C(O)[C@H]1[C@@H](c2ccccc2)[C@H](C(=O)Oc2cccc3ccccc23)[C@@H]1c1ccccc1 as the compound, how does the pKi [4] read?
**A.** 5.44

**Q.** And the pKi [7]?
**A.** 6.40

**Q.** For O=C(O)c1ccccc1NC(=O)N1CCC(c2ccccc2C(F)(F)F)CC1, which remaining at 0.5 h (in vitro) is on record?
**A.** < 30%

**Q.** With CC1=C(/C=C/C(C)=C/C=C/C(C)=C/C(=O)N2CCOCC2)C(C)(C)CCC1 as the compound, how does the pKd [1] read?
**A.** 6.88
